Test [1] relates to MIA PaCa-2 cells (K-Ras G12C). Description: Ras-SOS cellular growth inhibition assay (CellTiter-Glo, 3D). The class given is cell-based. The following applies: Homo sapiens. A digest of the protocol:
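MIA PaCa-2 cells grown in ultra-low-attachment plates (3D) in DMEM/Ham's F12 with 10% FCS and 2.5% horse serum, treated the day after seeding with a 9-point 3-fold compound series for about 5 days. Viability by CellTiter-Glo luminescence; IC50 from four-parameter fit.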

Another test concerns the target SOS1 (Homo sapiens (Human), UniProt Q07889). Description: Ras-SOS interaction assay (HTRF). The test is classed as biochemical. Background: In TR-FRET formats the signal depends on donor and acceptor labels being close together.
Test [2] deals with NCI-H1975 cells (EGFR T790M L858R). Description: EGFR-SOS cellular inhibition assay (CellTiter-Glo, 3D). The settings on record: Homo sapiens. The class given is cell-based. For orientation: In ATP-based viability assays light output follows the ATP content of the culture.
Setting [3] is: MIA PaCa-2, 120 h, MIA PaCa-2, 3D proliferation, about 5 days, read-out: Bio-Cell-Prolif-3D (MiaPaca2 IC50).
Setting [4] is: MIA PaCa-2, MIA PaCa-2, read-out: IC50 in inhibiting MIA PaCa-2 cell growth.
Setting [5] is: K-RasG13D utilized, read-out: IC50 inhibition of SOS.
Setting [6] is: K-RasG13D, read-out: IC50 value against SOS1.
Setting [7] is: 120 h, NCI-H1975, 3D proliferation, about 5 days, read-out: Bio-Cell-Prolif-3D (H1975 IC50).
Where [8] appears, read: NCI-H1975, EGFR T790M L858R, read-out: IC50 in inhibiting growth of NCI-H1975 cell line.

Read-outs that look alike come from different tables or passages of the source. A value given as a limit tells only on which side of the number the result lay.

Sequence of SOS1 (Q07889 564-1049): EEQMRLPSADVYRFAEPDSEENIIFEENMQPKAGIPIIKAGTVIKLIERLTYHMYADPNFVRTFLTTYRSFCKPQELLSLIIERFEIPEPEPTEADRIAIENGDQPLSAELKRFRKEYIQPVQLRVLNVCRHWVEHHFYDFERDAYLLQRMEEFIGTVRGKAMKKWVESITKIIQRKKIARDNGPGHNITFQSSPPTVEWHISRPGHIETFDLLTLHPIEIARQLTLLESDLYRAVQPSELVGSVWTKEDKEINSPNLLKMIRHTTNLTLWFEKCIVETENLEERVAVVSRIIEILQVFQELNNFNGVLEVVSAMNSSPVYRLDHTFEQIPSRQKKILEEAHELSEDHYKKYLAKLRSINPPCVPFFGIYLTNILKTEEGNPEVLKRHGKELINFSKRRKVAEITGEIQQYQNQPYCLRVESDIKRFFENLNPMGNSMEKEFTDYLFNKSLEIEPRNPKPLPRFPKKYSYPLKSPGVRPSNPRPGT

As a reminder, the IC50 is the midpoint of a concentration-inhibition curve. `COc1nc2nc(C)nc(N[C@H](C)c3cccc(C(F)(F)CO)c3F)c2cc1N1CCN(C(C)C)CC1` [Compound 181, (R)-2,2-difluoro-2-(2-fluoro-3-(1-((6-(4-isopropylpiperazin-1-yl)-7-methoxy-2-methylpyrido[2,3-d]pyrimidin-4-yl)amino)ethyl)phenyl)ethan-1-ol]: the IC50 in test [1] (setting [3]) was at most 1000 nM; in test [1] (setting [4]), below 500 nM; on SOS1 (setting [5]), below 100 nM; on SOS1 (setting [6]), below 50 nM; in test [2] (setting [7]), at most 1000 nM; in test [2] (setting [8]), below 500 nM.

As for `Cc1nc(N[C@H](C)c2cccc(C(F)F)c2F)c2cc(N3CCS(=O)(=O)CC3)c(OC3COC3)nc2n1` [Compound 183, (R)-4-(4-((1-(3-(difluoromethyl)-2-fluorophenyl)ethyl)amino)-2-methyl-7-(oxetan-3-yloxy)pyrido[2,3-d]pyrimidin-6-yl)thiomorpholine 1,1-dioxide], the IC50 was 1000 to 10000 nM in test [1] (setting [3]); below 100 nM on SOS1 (setting [5]); below 50 nM on SOS1 (setting [6]); at most 1000 nM in test [2] (setting [7]); below 500 nM in test [2] (setting [8]).

Consider `COc1nc2ncnc(N[C@H](C)c3cccc(C(F)F)c3F)c2cc1C1(C#N)CC1` [Compound 184, (R)-1-(4-((1-(3-(difluoromethyl)-2-fluorophenyl)ethyl)amino)-7-methoxypyrido[2,3-d]pyrimidin-6-yl)cyclopropane-1-carbonitrile], for which the IC50 in test [1] (setting [3]) was at most 1000 nM; on SOS1 (setting [5]) it was below 100 nM; in test [2] (setting [7]) it was at most 1000 nM; in test [2] (setting [8]), below 500 nM.

Regarding `COc1nc2ncnc(N[C@H](C)c3cccc(C(F)F)c3F)c2cc1C1(C(F)F)CC1` [Compound 185, (R)-N-(1-(3-(difluoromethyl)-2-fluorophenyl)ethyl)-6-(1-(difluoromethyl)cyclopropyl)-7-methoxypyrido[2,3-d]pyrimidin-4-amine], the IC50 lay in the range of 1000 to 10000 nM in test [1] (setting [3]), 100 to 1000 nM at SOS1 (setting [5]) and 1000 to 10000 nM in test [2] (setting [7]).

Take `CC(C)N1CCC(c2cc3c(N[C@H](C)c4cccc(C(F)F)c4F)ncnc3nc2OC2CN(C)C2)CC1` [Compound 187, (R)-N-(1-(3-(difluoromethyl)-2-fluorophenyl)ethyl)-6-(1-isopropylpiperidin-4-yl)-7-((1-methylazetidin-3-yl)oxy)pyrido[2,3-d]pyrimidin-4-amine]: the IC50 in test [1] (setting [3]) was 1000 to 10000 nM; on SOS1 (setting [5]), below 100 nM; at SOS1 (setting [6]), below 50 nM; in test [2] (setting [7]), 1000 to 10000 nM.

For `CCN1CCN(c2cc3c(N[C@H](C)c4cccc(C(F)F)c4F)nc(C)nc3nc2NC2COC2)CC1` [Compound 188, (R)-N4-(1-(3-(difluoromethyl)-2-fluorophenyl)ethyl)-6-(4-ethylpiperazin-1-yl)-2-methyl-N7-(oxetan-3-yl)pyrido[2,3-d] pyrimidine-4,7-diamine], the IC50 in test [1] (setting [3]) was 1000 to 10000 nM; on SOS1 (setting [5]), below 100 nM; on SOS1 (setting [6]) it was below 50 nM; in test [2] (setting [7]), at most 1000 nM; in test [2] (setting [8]), below 500 nM.

Take `COc1nc2ncnc(N[C@H](C)c3cccc(C(F)F)c3F)c2cc1C1CCN(C(C)C)CC1` [Compound 189, (R)-N-(1-(3-(difluoromethyl)-2-fluorophenyl)ethyl)-6-(1-isopropylpiperidin-4-yl)-7-methoxypyrido[2,3-d]pyrimidin-4-amine]: the figures for the IC50 (in test [1] (setting [3]); on SOS1 (setting [5]); in test [2] (setting [7])) were 1000 to 10000 nM, below 100 nM and at most 1000 nM, respectively.

For `Cc1nc(N[C@H](C)c2cccc(C(F)F)c2F)c2cc(C3(C(F)F)CC3)c(OC3CN(C)C3)nc2n1` [Compound 190, (R)-N-(1-(3-(difluoromethyl)-2-fluorophenyl)ethyl)-6-(1-(difluoromethyl)cyclopropyl)-2-methyl-7-((1-methylazetidin-3-yl)oxy)pyrido[2,3-d] pyrimidin-4-amine], the IC50 in test [1] (setting [3]) was at most 1000 nM; in test [1] (setting [4]), below 500 nM; on SOS1 (setting [5]), below 100 nM; at SOS1 (setting [6]) it was below 50 nM; in test [2] (setting [7]), at most 1000 nM; in test [2] (setting [8]), below 500 nM.

For `Cc1nc(N[C@H](C)c2cccc(C(F)F)c2F)c2cc(C3CCS(=O)(=O)CC3)c(OC3CN(C)C3)nc2n1` [Compound 191, (R)-4-(4-((1-(3-(difluoromethyl)-2-fluorophenyl)ethyl)amino)-2-methyl-7-((1-methylazetidin-3-yl)oxy)pyrido[2,3-d]pyrimidin-6-yl)tetrahydro-2H-thiopyran 1,1-dioxide], the IC50 in test [1] (setting [3]) is 1000 to 10000 nM; at SOS1 (setting [5]), below 100 nM; on SOS1 (setting [6]), below 50 nM; in test [2] (setting [7]), 1000 to 10000 nM.

`Cc1nc(N[C@H](C)c2cccc(C(F)F)c2F)c2cc(N3CCN(C(C)C)CC3)c(NC3COC3)nc2n1` [Compound 192, (R)-N4-(1-(3-(difluoromethyl)-2-fluorophenyl)ethyl)-6-(4-isopropylpiperazin-1-yl)-2-methyl-N7-(oxetan-3-yl)pyrido[2,3-d] pyrimidine-4,7-diamine]: the IC50 in test [1] (setting [3]) was 1000 to 10000 nM; at SOS1 (setting [5]), below 100 nM; at SOS1 (setting [6]), below 50 nM; in test [2] (setting [7]), at most 1000 nM.

Regarding `Cc1nc(N[C@H](C)c2cccc(C(F)(F)CO)c2)c2cc(C3(C#N)CC3)c(Cl)nc2n1` [Compound 194, (R)-1-(7-chloro-4-((1-(3-(1,1-difluoro-2-hydroxyethyl)phenyl)ethyl)amino)-2-methylpyrido[2,3-d]pyrimidin-6-yl)cyclopropane-1-carbonitrile], the IC50 in test [1] (setting [3]) is at most 1000 nM; in test [1] (setting [4]), below 500 nM; on SOS1 (setting [5]), below 100 nM; on SOS1 (setting [6]), below 50 nM; in test [2] (setting [7]), at most 1000 nM.

Consider `CCN1CCN(c2cc3c(N[C@H](C)c4cccc(C(F)(F)F)c4F)ncnc3nc2OC)CC1` [Compound 196, (R)-6-(4-ethylpiperazin-1-yl)-N-(1-(2-fluoro-3-(trifluoromethyl)phenyl)ethyl)-7-methoxypyrido[2,3-d]pyrimidin-4-amine], for which the IC50 was at most 1000 nM in test [1] (setting [3]); below 500 nM in test [1] (setting [4]); below 100 nM on SOS1 (setting [5]); below 50 nM at SOS1 (setting [6]); at most 1000 nM in test [2] (setting [7]); below 500 nM in test [2] (setting [8]).

For `COc1nc2ncnc(N[C@H](C)c3cccc(C(F)(F)F)c3F)c2cc1N1CCN(C)CC1` [Compound 197, (R)-N-(1-(2-fluoro-3-(trifluoromethyl)phenyl)ethyl)-7-methoxy-6-(4-methylpiperazin-1-yl)pyrido[2,3-d] pyrimidin-4-amine], the IC50 was at most 1000 nM in test [1] (setting [3]); below 500 nM in test [1] (setting [4]); below 100 nM at SOS1 (setting [5]); below 50 nM at SOS1 (setting [6]); at most 1000 nM in test [2] (setting [7]); below 500 nM in test [2] (setting [8]).

As for `CCN1CCN(c2cc3c(N[C@H](C)c4cccc(C(F)(F)F)c4C)ncnc3nc2OC)CC1` [Compound 198, (R)-6-(4-ethylpiperazin-1-yl)-7-methoxy-N-(1-(2-methyl-3-(trifluoromethyl)phenyl)ethyl)pyrido[2,3-d]pyrimidin-4-amine], the IC50 in test [1] (setting [3]) was at most 1000 nM; in test [1] (setting [4]), below 500 nM; at SOS1 (setting [5]), below 100 nM; on SOS1 (setting [6]) it was below 50 nM; in test [2] (setting [7]) it was at most 1000 nM; in test [2] (setting [8]), below 500 nM.
